# Experiments:
# [1] = target: T1, TrkB (Rattus norvegicus, UniProt Q63604); assay: biochemical; assay type: binding
# T1 construct: expressed in transfected cells; host or cells: HEK293T
# [2] = test system: spine density of neuronal cultures; assay: Spinogenesis in mature neuronal cultures (WT and Y433F^+/−); assay type: cell-based, mouse; set-up: 6d: Mean (spinogenesis, spine density) / 6e: Mean (spinogenesis, spine density): unit not given here; details: for 6e: Mean (spinogenesis, spine density): Vehicle:Vehicle mean 7.05
# Method: Spinogenesis experiments were performed similarly to previous studies[12],[13] with modifications. […] In a separate set of experiments to study the effects of extracellular BDNF and 5-HT2A activation, cultures were also pretreated for 10 min with TrkB.FC (200 ng ml^−1) or M100907 (100 nM), respectively. TrkB.FC and M100907 remained in the medium for the rest of the experiment. Twenty-four hours later, coverslips were fixed with 4% PFA, washed with PBS, incubated with blocking buffer (0.1% Triton X-100, 0.05% Tween-20, 10% normal donkey serum, 1% BSA and 0.1% gelatin in PBS) for 1 h at room temperature and then overnight with rabbit anti-MAP2 (Invitrogen, PA5-17646; 1:100) primary antibody at 4 °C. After washing with PBS, coverslips were incubated with CF568-conjugated donkey anti-rabbit (Biotium, 20098; 1:500) for 1 h at room temperature. Another round of PBS washes was followed by incubation with Alexa Fluor 647-conjugated phalloidin (Invitrogen, A22287; 1:40) overnight at 4 °C. Next, coverslips were briefly washed in phosphate buffer (PB) and mounted on slides with ProLong Glass Antifade Mountant (Invitrogen, P36982). We used a Zeiss LSM 880 confocal microscope with an AiryScan GaAsP detector equipped with a PlanApochromat 63×/1.4 NA objective. We used the BP 495–550 + LP 570 AiryScan filter and Zen Black in super-resolution mode for image acquisition. Pinhole size was adapted accordingly, and frame size was set to optimal. Sensors were set to continuous adjustment across the imaging sessions to ensure optimal sensor alignment and signal detection. Raw data were processed into AiryScan images with the autofilter mode on using Zen Blue. Finally, image analysis was performed in ImageJ by experimenters blinded for treatment and genotype. Spines were quantified in 15-µm-long dendrite sections.
# [3] = test system: dendritic arbor complexity of neuronal cultures; assay: Dendritogenesis (Sholl analysis) in neuronal cultures (WT and Y433F^+/−); assay type: cell-based, mouse
# How it was run: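 Some cultures were pretreated 10 min with TrkB.FC (200 ng ml^−1) or M100907 (100 nM), which stayed in the medium alongside cumulative psychedelic doses. Sholl analysis counted dendritic intersections every 5 μm from the soma.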
# [4] = Y433F+/-:vehicle minus Y433F+/-:treatment
# T1 sequence (Q63604 32-821): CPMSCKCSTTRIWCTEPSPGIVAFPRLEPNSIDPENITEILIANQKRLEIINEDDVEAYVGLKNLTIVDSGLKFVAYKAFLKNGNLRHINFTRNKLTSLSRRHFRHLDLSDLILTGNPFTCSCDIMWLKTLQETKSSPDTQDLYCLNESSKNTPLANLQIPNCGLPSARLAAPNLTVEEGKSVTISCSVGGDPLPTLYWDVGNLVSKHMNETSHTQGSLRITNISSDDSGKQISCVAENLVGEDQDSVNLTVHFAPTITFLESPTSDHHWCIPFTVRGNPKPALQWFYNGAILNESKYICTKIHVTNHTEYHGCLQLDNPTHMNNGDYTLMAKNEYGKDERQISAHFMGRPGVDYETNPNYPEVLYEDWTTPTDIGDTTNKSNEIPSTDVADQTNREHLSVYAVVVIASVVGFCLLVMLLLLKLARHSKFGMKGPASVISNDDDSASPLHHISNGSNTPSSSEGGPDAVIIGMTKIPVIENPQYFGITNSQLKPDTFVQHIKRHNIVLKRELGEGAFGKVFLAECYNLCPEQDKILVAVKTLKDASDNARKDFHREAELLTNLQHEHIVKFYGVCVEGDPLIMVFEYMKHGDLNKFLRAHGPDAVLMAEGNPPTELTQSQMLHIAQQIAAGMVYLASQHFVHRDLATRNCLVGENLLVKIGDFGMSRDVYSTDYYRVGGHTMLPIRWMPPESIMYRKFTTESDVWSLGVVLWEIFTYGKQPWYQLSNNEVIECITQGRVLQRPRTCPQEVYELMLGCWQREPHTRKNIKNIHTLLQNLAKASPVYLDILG
structure (smiles),measurement,setting,value
"CCN(CC)C(=O)C1C=C2c3cccc4[nH]cc(c34)CC2N(C)C1 (stereo not shown) [LSD, lysergic acid diethylamide]",Ki,[1],3.38 ± 1.39 nM
same,"Bmax (best-fit, 1b)",[1]; competition with ^3H-LSD,104.9
same,"h (best-fit, 1b)",[1]; competition with ^3H-LSD,-0.5005
same,"6e: Mean Diff. (Vehicle:Vehicle vs. treatment), Bonferroni's multiple comparisons test",[2]; LSD together with M100907,-7.65
same,"6e: Mean (spinogenesis, spine density)",[2]; LSD together with M100907,14.7
same,"6e: Mean Diff. (Vehicle:Vehicle vs. treatment), Bonferroni's multiple comparisons test",[2]; LSD together with TrkB.FC,0.25
same,"6e: Mean (spinogenesis, spine density)",[2]; LSD together with TrkB.FC,6.8
same,"6d: Mean (spinogenesis, spine density)","[2]; WT neurons, vehicle mean 5.7",13
same,"6d: Mean Diff. (vehicle vs. treatment), Bonferroni's multiple comparisons test",[2]; WT:vehicle minus WT:treatment,-7.3
same,"6d: Mean (spinogenesis, spine density)","[2]; Y433F+/- neurons, vehicle mean 6.55",7.5
same,"6d: Mean Diff. (vehicle vs. treatment), Bonferroni's multiple comparisons test",[2]; [4],-0.95
same,spine density,"[2]; cultures from WT mice, 24 h, 100 nM",increase spine density
same,"6e: Mean Diff. (Vehicle:Vehicle vs. treatment), Bonferroni's multiple comparisons test",[2]; substance alone (with vehicle),-7.6
same,"6e: Mean (spinogenesis, spine density)",[2]; substance alone (with vehicle),14.65
same,"6g: Mean (dendritogenesis, Sholl analysis)","[3]; WT neurons, vehicle mean 32.96",75.11
same,"6g: Mean Diff. (vehicle vs. treatment), Bonferroni's multiple comparisons test",[3]; WT:vehicle minus WT:treatment,-42.15
same,"6g: Mean (dendritogenesis, Sholl analysis)","[3]; Y433F+/- neurons, vehicle mean 44.44",47.24
same,"6g: Mean Diff. (vehicle vs. treatment), Bonferroni's multiple comparisons test",[3]; [4],-2.791
same,dendritic arbor complexity,[3]; cultures from WT mice,enhance dendritic arbor complexity
same,dendritic arbor complexity,[3]; cultures from Y433F^+/− mice,not Y433F^+/− mice
same,"dendritic arbor complexity, Mean Diff. (Vehicle:vehicle vs. group)","[3]; fig 6i, Bonferroni's multiple comparisons test",-41.23
same,"dendritic arbor complexity, group mean (Mean 2)","[3]; fig 6i, treatment:pretreatment groups, Vehicle:vehicle mean 69.72",110.9
same,"Sholl analysis, Mean at distance from soma","[3]; fig 6j, distance from soma 10 µm",8.895
same,"Sholl analysis, Mean at distance from soma","[3]; fig 6j, distance from soma 15 µm",10.2632
same,"Sholl analysis, Mean at distance from soma","[3]; fig 6j, distance from soma 20 µm",10.421
same,"Sholl analysis, Mean at distance from soma","[3]; fig 6j, distance from soma 25 µm",9.211
same,"Sholl analysis, Mean at distance from soma","[3]; fig 6j, distance from soma 30 µm",8.842
same,"Sholl analysis, Mean at distance from soma","[3]; fig 6j, distance from soma 35 µm",8.316
same,"Sholl analysis, Mean at distance from soma","[3]; fig 6j, distance from soma 40 µm",6.789
same,"Sholl analysis, Mean at distance from soma","[3]; fig 6j, distance from soma 45 µm",6.368
same,"Sholl analysis, Mean at distance from soma","[3]; fig 6j, distance from soma 50 µm",6.368
same,"Sholl analysis, Mean at distance from soma","[3]; fig 6j, distance from soma 55 µm",4.737
same,"Sholl analysis, Mean at distance from soma","[3]; fig 6j, distance from soma 60 µm",4.526
same,"Sholl analysis, Mean at distance from soma","[3]; fig 6j, distance from soma 65 µm",3.895
same,"Sholl analysis, Mean at distance from soma","[3]; fig 6j, distance from soma 70 µm",3.526
same,"Sholl analysis, Mean at distance from soma","[3]; fig 6j, distance from soma 75 µm",3.158
same,"Sholl analysis, Mean at distance from soma","[3]; fig 6j, distance from soma 80 µm",3.158
same,"Sholl analysis, Mean at distance from soma","[3]; fig 6j, distance from soma 85 µm",3.316
same,"Sholl analysis, Mean at distance from soma","[3]; fig 6j, distance from soma 90 µm",3.105
same,"Sholl analysis, Mean at distance from soma","[3]; fig 6j, distance from soma 95 µm",3.211
same,"Sholl analysis, Mean at distance from soma","[3]; fig 6j, distance from soma 100 µm",2.842
same,"Sholl analysis, Mean at distance from soma","[3]; fig 6h, distance from soma 25 µm",4.059
same,"Sholl analysis, Mean at distance from soma","[3]; fig 6h, distance from soma 30 µm",3.529
same,"Sholl analysis, Mean at distance from soma","[3]; fig 6h, distance from soma 35 µm",3
same,"Sholl analysis, Mean at distance from soma","[3]; fig 6h, distance from soma 40 µm",3.059
same,"Sholl analysis, Mean at distance from soma","[3]; fig 6h, distance from soma 45 µm",2.412
same,"Sholl analysis, Mean at distance from soma","[3]; fig 6h, distance from soma 50 µm",2.471
same,"Sholl analysis, Mean at distance from soma","[3]; fig 6h, distance from soma 55 µm",2.294
same,"Sholl analysis, Mean at distance from soma","[3]; fig 6h, distance from soma 60 µm",1.882
same,"Sholl analysis, Mean at distance from soma","[3]; fig 6h, distance from soma 65 µm",1.765
same,"Sholl analysis, Mean at distance from soma","[3]; fig 6h, distance from soma 70 µm",1.294
same,"Sholl analysis, Mean at distance from soma","[3]; fig 6h, distance from soma 75 µm",1.353
same,"Sholl analysis, Mean at distance from soma","[3]; fig 6h, distance from soma 80 µm",1.353
same,"Sholl analysis, Mean at distance from soma","[3]; fig 6h, distance from soma 85 µm",1
same,"Sholl analysis, Mean at distance from soma","[3]; fig 6h, distance from soma 90 µm",1.059
same,"Sholl analysis, Mean at distance from soma","[3]; fig 6h, distance from soma 95 µm",1
same,"Sholl analysis, Mean at distance from soma","[3]; fig 6h, distance from soma 100 µm",0.7059
same,6h: Mean (Sholl analysis),"[3]; first 6h table (N as WT), distance from soma 10 µm",6.789
same,6h: Mean (Sholl analysis),"[3]; first 6h table (N as WT), distance from soma 15 µm",8.684
same,6h: Mean (Sholl analysis),"[3]; first 6h table (N as WT), distance from soma 20 µm",8.526
same,6h: Mean (Sholl analysis),"[3]; first 6h table (N as WT), distance from soma 25 µm",6.474
same,6h: Mean (Sholl analysis),"[3]; first 6h table (N as WT), distance from soma 30 µm",6
same,6h: Mean (Sholl analysis),"[3]; first 6h table (N as WT), distance from soma 35 µm",5.211
same,6h: Mean (Sholl analysis),"[3]; first 6h table (N as WT), distance from soma 40 µm",3.632
same,6h: Mean (Sholl analysis),"[3]; first 6h table (N as WT), distance from soma 45 µm",3.474
same,6h: Mean (Sholl analysis),"[3]; first 6h table (N as WT), distance from soma 50 µm",3
same,6h: Mean (Sholl analysis),"[3]; first 6h table (N as WT), distance from soma 55 µm",2.684
same,6h: Mean (Sholl analysis),"[3]; first 6h table (N as WT), distance from soma 60 µm",3.105
same,6h: Mean (Sholl analysis),"[3]; first 6h table (N as WT), distance from soma 65 µm",2.579
same,6h: Mean (Sholl analysis),"[3]; first 6h table (N as WT), distance from soma 70 µm",2.421
same,6h: Mean (Sholl analysis),"[3]; first 6h table (N as WT), distance from soma 75 µm",2.263
same,6h: Mean (Sholl analysis),"[3]; first 6h table (N as WT), distance from soma 80 µm",2.421
same,6h: Mean (Sholl analysis),"[3]; first 6h table (N as WT), distance from soma 85 µm",2
same,6h: Mean (Sholl analysis),"[3]; first 6h table (N as WT), distance from soma 90 µm",2.421
same,6h: Mean (Sholl analysis),"[3]; first 6h table (N as WT), distance from soma 95 µm",1.632
same,6h: Mean (Sholl analysis),"[3]; first 6h table (N as WT), distance from soma 100 µm",1.789
same,6h: Mean (Sholl analysis),"[3]; second 6h table (N as Y433F), distance from soma 10 µm",5.294
same,6h: Mean (Sholl analysis),"[3]; second 6h table (N as Y433F), distance from soma 15 µm",4.941
same,6h: Mean (Sholl analysis),"[3]; second 6h table (N as Y433F), distance from soma 20 µm",4.765
